The text below walks through data of publication PMC4224607 (Chemical communications (Cambridge, England), 2014).

SMILES strings stand for the structures.

The nature of this assay: COPAS bead-based screening, background binding of the dye to library beads. Particulars: TR-labeled lysine and TR-labeled hCAII.

Turning to `O=S(=O)([O-])c1cc(S(=O)(=O)Cl)ccc1C1=c2cc3c4c(c2Oc2c1cc1c5c2CCCN5CCC1)CCC[N+]=4CCC3` [TR], the “composition of positive peptides: positively charged amino acids” value is listed as “reduced abundance of positively charged amino acids”.
